Structures are written as SMILES. Where “and” joins values, the source holds several entries; their conditions need not be identical. Identical values can stand only once. Like-named read-outs stand apart in the source and are kept apart here. Where a SMILES comes first, the peptide text is derived from it.

This is an account of results in patent US20230047825A1, “ANTIMICROBIAL PEPTIDES” (priority 2019, published 2023).

In the data set the test system is EMRSA-15 lung infection. How it is done:
Murine EMRSA-15 lung infection model. In one embodiment this was carried out using the method described previously,^58 an overnight culture of EMRSA-15 was prepared in tryptic soy broth (TSB). EMRSA-15 was cultured in TSB overnight at 37° C., adjusted to a starting OD600 of 0.025, and grown for additional 4 h for agar beads preparation. EMRSA-15 was embedded into agar beads by mixing the overnight culture with molten tryptic soy agar, which was then spun into warmed mineral oil. The preparation was cooled and centrifuged at 2,700 g, the remaining oil was eliminated and the beads were washed in sterile PBS. The colony forming unit (cfu) content of the beads slurry was subsequently quantified on TSA plates and the beads slurry then diluted to either 2×10^7 cfu/ml in sterile PBS to deliver a final dose of either 1×10^6 cfu/mouse. Animal work was performed in accordance with the Animals (Scientific Procedures) Act of 1986 (United Kingdom). On day 0, male C57B16J mice (8-10 weeks, Charles River) were anesthetized under Isoflurane and 50 μl inoculum of EMRSA-15 embedded in agar beads (10^6 cfu/mouse) was instilled directly into the respiratory tract via oropharyngeal dosing (o.a) to reduce severity associated with surgery. Sham control mice were inoculated with sterile PBS agar beads. […] Body weight was measured daily, and animals monitored at regular intervals for signs of pain and distress. 48 hours post pulmonary infection, animals were terminally euthanized using 25% Urethane via intra-peritoneal injection. Lungs, were removed and homogenized in 2 ml PBS. Samples were serially diluted 1:10 in PBS and plated for CFU count. Lung homogenates were then centrifuged at 14000 rpm for 30 min at 4° C. and the supernatants were stored at −80° C. for future analysis. For bronchoalveolar lavage fluid collection and analysis (total and differential cell count), a 22-gauge catheter was inserted into the trachea and BAL was recovered by instillation of 0.5 ml of sterile PBS three times and total cells counts were performed by adding Turks stain in a 1:1 ratio. Total cells were then enumerated on an improved Naubauer haemocytometer. BAL fluid was then centrifuged, and supernatants were stored at −20° C. Cytospin slides were prepared and 100 μl of BAL was added into a cytospin funnel and centrifuged at 1000 rpm for 1 minute on a medium acceleration. The slides were then stained using Diff-Quick (Dade, Biomap, Italy).
More suitably Murine EMRSA-15 lung infection model was carried out using the method described previously,^58 an overnight culture of EMRSA-15 was prepared in tryptic soy broth (TSB). EMRSA-15 was cultured in TSB overnight at 37° C., adjusted to a starting OD600 of 0.025, and grown for additional 4 h for agar beads preparation. EMRSA-15 was embedded into agar beads by mixing the overnight culture with molten tryptic soy agar, which was then spun into warmed mineral oil. The preparation was cooled and centrifuged at 2,700 g, the remaining oil was eliminated, and the beads were washed in sterile PBS. The colony forming unit (CFU) content of the beads slurry was subsequently quantified on TSA plates and the beads slurry then diluted to either 2×10^7 CFU/ml in sterile PBS to deliver a final dose of either 1×10^6 CFU/mouse. Animal work was performed in accordance with the Animals (Scientific Procedures) Act of 1986 (United Kingdom). On day 0, male C57B16J mice (8-10 weeks, Charles River) were anesthetized under Isoflurane and 50 μl inoculum of EMRSA-15 embedded in agar beads (10^6 CFU/mouse) was instilled directly into the respiratory tract via oropharyngeal dosing (o.a.) to reduce severity associated with surgery. Sham control mice were inoculated with sterile PBS agar beads.

Turning to `CC(C)C[C@@H](NC(=O)[C@@H](Cc1ccc(O)cc1)NC(=O)[C@@H](Cc1c[nH]cn1)NC(=O)[C@H](NC(=O)[C@@H](CC(C)C)NC(=O)[C@@H](C)NC(=O)[C@@H](C)NC(=O)[C@@H](CCCNC(=N)N)NC(=O)CNC(=O)[C@H](NC(=O)[C@@H](Cc1c[nH]cn1)NC(=O)[C@@H](CCCNC(=N)N)NC(=O)CNC(=O)[C@H](NC(=O)[C@@H](Cc1c[nH]cn1)NC(=O)[C@@H](C)NC(=O)[C@@H](C)NC(=O)[C@@H](CCCNC(=N)N)NC(=O)[C@@H](CCCNC(=N)N)NC(=O)[C@@H](Cc1ccccc1)NC(=O)[C@@H](Cc1ccccc1)NC(=O)[C@@H](CO)NC(=O)CNC(=O)[C@@H](Cc1c[nH]c2ccccc12)NC(=O)CN)C(C)C)C(C)C)[C@H](C)O)C(N)=O` [D-pleurocidin-KR] (HELM PEPTIDE1{G.[dW].G.[dS].[dF].[dF].[dR].[dR].[dA].[dA].[dH].[dV].G.[dR].[dH].[dV].G.[dR].[dA].[dA].[dL].[dT].[dH].[dY].[dL].[am]}$$$$V2.0; N-terminus assumed), the “reduction in lung CFU” value by setting is: (cumulative dose 1.5 mg/kg/48h i.v.) 0.9 log10; (cumulative dose 15 mg/kg/48h i.v. (three doses at 4, 24, 30 h post infection), 15 mg/kg) 1.14 log10 and 1.1 log10; (cumulative dose 15 mg/kg/48h i.v. (three doses at 4, 24, 30 h post infection), listed as AMP2b, 15 mg/kg) 1.14 log10. In addition, the “weight loss over the 48-hour infection period” value (cumulative dose of 15 or 1.5 mg/kg/48h i.v.) is “mitigates this weight loss” and the “weight loss over the 48-hour infection period” value (lowest cumulative dose of 0.15 mg/kg i.v.) is “no observable effect”. Moreover, the “IL-6 and neutrophil recruitment in BAL” value is “reduced” (following therapy, i.v.) and “significant reduction” (lowest dose of D-pleurocidin-KR (0.15 mg/kg cumulative)). For the same compound, the “macrophage numbers, TNFα and MCP-1 levels in BAL” value (following therapy, i.v.) was “No effects”. Also, the “tolerability in murine lung infection model” value (i.v., cumulative dose of 15 or 1.5 mg/kg) is given as “well tolerated”. For the same compound, under “murine EMRSA-15 lung infection”, the “effective cumulative dose over 48 hrs” value stood at 1.5 mg/kg. Moreover, the “mouse KC levels in BAL” value (vancomycin 600 mg/kg or the two higher D-pleurocidin-KR doses (15, 1.5 mg/kg cumulative)) is “KC levels to fall to that of the uninfected group”.
